Source: PubChem BioAssay (NCI)
Values joined by “and” are separate entries in the source; they are usually repeats but may differ in a detail not shown here. Equal values may be shown once.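 48-hour exposure; five concentrations; linearly interpolated endpoints. GI50 marks 50% less growth. TGI is the concentration that stops growth completely.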

Columns and labels:
Test in all cases: growth of human tumour cells (NCI), 48 h
DMS 114 small cell lung = system: DMS 114 small cell lung
SNB-78 CNS = system: SNB-78 CNS
KM20L2 colon = system: KM20L2 colon
M19-MEL melanoma = system: M19-MEL melanoma
DLD-1 colon = system: DLD-1 colon
DMS 273 small cell lung = system: DMS 273 small cell lung
DU-145 prostate = system: DU-145 prostate
MDA-MB-231 breast = system: MDA-MB-231 breast
BT-549 breast = system: BT-549 breast
NCI/ADR-RES ovarian = system: NCI/ADR-RES ovarian

CCOC(=O)NC(=O)c1cn(CCN2CCN(C(=O)NCCCCCCNC(=O)N3CCN(CCn4cc(C(=O)NC(=O)OCC)c(=O)n(CCN(CC)CC)c4=O)CC3)CC2)c(=O)n(CCC(CC)CC)c1=O
TGI (DMS 114 small cell lung): > 100 µM
TGI (SNB-78 CNS): > 100 µM
TGI (KM20L2 colon): > 100 µM
TGI (M19-MEL melanoma): > 100 µM
TGI (DLD-1 colon): > 100 µM
TGI (DMS 273 small cell lung): > 100 µM

Clc1ccc(SCCCCCCCCCCSc2ccc(Cl)cc2)cc1
TGI (DMS 114 small cell lung): > 100 µM
TGI (SNB-78 CNS): > 100 µM
TGI (KM20L2 colon): > 87 µM
TGI (M19-MEL melanoma): > 100 µM
TGI (DLD-1 colon): > 100 µM
TGI (DMS 273 small cell lung): > 100 µM

COc1cc(/C=C2/C(=O)NC(Cc3cc(OC)c(OC)c(C)c3OC)C(=O)N2Cc2ccccc2)c(OC)c(C)c1OC (centres undefined)
TGI (DMS 114 small cell lung): > 100 µM
TGI (KM20L2 colon): > 100 µM
TGI (M19-MEL melanoma): > 100 µM
TGI (DLD-1 colon): > 100 µM
TGI (DMS 273 small cell lung): > 100 µM

CNc1nc(N(C)C)nc(N(C)C)n1
TGI (DU-145 prostate): 5040 µM
TGI (MDA-MB-231 breast): 2640 µM
GI50 (DMS 114 small cell lung): > 100 µM and 527 µM
TGI (DMS 114 small cell lung): > 100 µM and 5500 µM
GI50 (SNB-78 CNS): > 100 µM and 1780 µM
TGI (SNB-78 CNS): > 100 µM and 5300 µM
GI50 (KM20L2 colon): > 100 µM and 718 µM
TGI (KM20L2 colon): > 100 µM and 3210 µM
GI50 (M19-MEL melanoma): > 100 µM and 2040 µM
TGI (M19-MEL melanoma): > 100 µM and 3950 µM
TGI (BT-549 breast): 3620 µM
TGI (NCI/ADR-RES ovarian): 2650 µM
GI50 (DLD-1 colon): > 100 µM and 822 µM
TGI (DLD-1 colon): > 100 µM and 4160 µM
GI50 (DMS 273 small cell lung): > 100 µM and 1230 µM
TGI (DMS 273 small cell lung): > 100 µM and 2740 µM

C[CH2][Sn]([CH2]C)([O]C(=O)c1cccc(F)c1)[O][Sn]([CH2]C)([CH2]C)[O]C(=O)c1cccc(F)c1
GI50 (DMS 114 small cell lung): 14 µM
TGI (DMS 114 small cell lung): 27.3 µM
GI50 (SNB-78 CNS): 16.3 µM
TGI (SNB-78 CNS): 35.1 µM
GI50 (KM20L2 colon): 38.4 µM
TGI (KM20L2 colon): > 100 µM
GI50 (M19-MEL melanoma): 16.8 µM
TGI (M19-MEL melanoma): 31.9 µM
GI50 (DLD-1 colon): 12.5 µM
TGI (DLD-1 colon): 26.1 µM
GI50 (DMS 273 small cell lung): 32 µM
TGI (DMS 273 small cell lung): > 100 µM

CC12CC3CC(C1)CC(N=[N+]=[N-])(C3)C2
TGI (DMS 114 small cell lung): > 100 µM
TGI (SNB-78 CNS): > 100 µM
TGI (KM20L2 colon): > 100 µM
TGI (M19-MEL melanoma): > 100 µM
TGI (DLD-1 colon): > 100 µM
TGI (DMS 273 small cell lung): > 100 µM

O=C(/C=C1/NC(=O)CS1)Nc1ccccc1
TGI (DMS 114 small cell lung): > 100 µM
TGI (SNB-78 CNS): > 100 µM
TGI (KM20L2 colon): > 100 µM
TGI (M19-MEL melanoma): > 100 µM
TGI (DLD-1 colon): > 100 µM
TGI (DMS 273 small cell lung): > 100 µM

O=C1C[C@@H]2CCCC[C@@H]2C12SCCS2
TGI (DMS 114 small cell lung): > 100 µM
TGI (SNB-78 CNS): > 100 µM
TGI (M19-MEL melanoma): > 100 µM
TGI (DLD-1 colon): > 100 µM
TGI (DMS 273 small cell lung): > 100 µM

COc1cc(C(=O)CC2(O)C(=O)Nc3c(Cl)cc(Cl)cc32)ccc1O (centres undefined)
TGI (DMS 114 small cell lung): > 100 µM
TGI (SNB-78 CNS): > 100 µM
TGI (KM20L2 colon): > 100 µM
TGI (DLD-1 colon): > 100 µM
TGI (DMS 273 small cell lung): > 100 µM

Cc1ccc(C2=C(c3ccccc3)C(Br)(c3ccccc3)C(c3ccccc3)=C2c2ccc(C)cc2)cc1
TGI (DMS 114 small cell lung): > 100 µM
TGI (SNB-78 CNS): > 100 µM
TGI (KM20L2 colon): > 100 µM
TGI (M19-MEL melanoma): > 100 µM
TGI (DLD-1 colon): > 100 µM

Cc1ccc(N2C(=O)/C(=C/c3ccc(N(CCC#N)CCC#N)cc3C)N=C2c2cc([N+](=O)[O-])ccc2Cl)cc1
TGI (DMS 114 small cell lung): > 100 µM
TGI (SNB-78 CNS): > 100 µM
TGI (M19-MEL melanoma): > 100 µM
TGI (DLD-1 colon): > 100 µM
TGI (DMS 273 small cell lung): > 100 µM

CC1=Nn2c(nnc2-c2ccc(N)cc2)NC(C)(C)C1
TGI (DMS 114 small cell lung): > 100 µM
TGI (SNB-78 CNS): > 100 µM
TGI (KM20L2 colon): > 100 µM
TGI (M19-MEL melanoma): > 100 µM
TGI (DLD-1 colon): > 100 µM
TGI (DMS 273 small cell lung): > 100 µM

COc1ccc2c(c1)CC1c3c(cc4c(c3-2)OCO4)CCN1C (centres undefined)
TGI (DMS 114 small cell lung): 68.8 µM
TGI (SNB-78 CNS): > 100 µM
TGI (KM20L2 colon): > 100 µM
TGI (M19-MEL melanoma): 45.2 µM
TGI (DLD-1 colon): > 100 µM
TGI (DMS 273 small cell lung): > 100 µM

CC(C)(c1ccc(OC#N)cc1)c1ccc(OC#N)cc1
TGI (DMS 114 small cell lung): > 56.9 µM
TGI (SNB-78 CNS): > 100 µM
TGI (KM20L2 colon): > 100 µM
TGI (M19-MEL melanoma): > 100 µM
TGI (DLD-1 colon): > 100 µM

N#CC(C#N)=C1SCC(=O)CS1
TGI (DMS 114 small cell lung): > 100 µM
TGI (SNB-78 CNS): > 100 µM
TGI (KM20L2 colon): > 100 µM
TGI (M19-MEL melanoma): > 100 µM
TGI (DLD-1 colon): > 100 µM
TGI (DMS 273 small cell lung): > 100 µM

COc1cc([C@@H]2OC(=O)C3C2C(=O)O[C@H]3c2cc(OC)c(OC)c(OC)c2)cc(OC)c1OC (some centres undefined)
TGI (DMS 114 small cell lung): > 100 µM
TGI (SNB-78 CNS): > 100 µM
TGI (KM20L2 colon): > 100 µM
TGI (M19-MEL melanoma): > 100 µM
TGI (DMS 273 small cell lung): > 100 µM

Cc1cc(=O)oc2cc(OCc3nc4ccccc4c(=O)[nH]3)ccc12
TGI (DMS 114 small cell lung): > 100 µM
TGI (KM20L2 colon): > 100 µM
TGI (M19-MEL melanoma): > 100 µM
TGI (DLD-1 colon): > 100 µM
TGI (DMS 273 small cell lung): > 100 µM

c1ccc(SC(CCCCOC2CCCCO2)Sc2ccccc2)cc1 (centres undefined)
TGI (DMS 114 small cell lung): > 100 µM
TGI (SNB-78 CNS): > 100 µM
TGI (M19-MEL melanoma): > 100 µM
TGI (DLD-1 colon): > 100 µM
TGI (DMS 273 small cell lung): > 100 µM

NC(CCSC(F)F)C(=O)O (centres undefined)
TGI (DMS 114 small cell lung): > 100 µM
TGI (SNB-78 CNS): > 100 µM
TGI (KM20L2 colon): > 100 µM
TGI (M19-MEL melanoma): > 100 µM
TGI (DLD-1 colon): > 100 µM
TGI (DMS 273 small cell lung): > 100 µM

Cc1cccc2c1C(=O)OC2(C)c1cccc2ccccc12 (centres undefined)
TGI (DMS 114 small cell lung): > 100 µM
TGI (SNB-78 CNS): > 100 µM
TGI (KM20L2 colon): 59.5 µM
TGI (M19-MEL melanoma): > 100 µM
TGI (DLD-1 colon): > 100 µM

Cn1c(=O)c(C(=O)NC(=O)OCc2ccccc2)cn(CCSCCOC(=O)NCCCCCCNC(=O)OCCSCCn2cc(C(=O)NC(=O)OCc3ccccc3)c(=O)n(C)c2=O)c1=O
TGI (DMS 114 small cell lung): > 100 µM
TGI (SNB-78 CNS): > 100 µM
TGI (KM20L2 colon): > 100 µM
TGI (M19-MEL melanoma): > 100 µM
TGI (DLD-1 colon): > 100 µM
TGI (DMS 273 small cell lung): > 100 µM

COc1cc2cccc(NC(=O)c3cc(OC)c(OC)c(OC)c3Br)c2cc1OC
TGI (DMS 114 small cell lung): 12.8 µM
TGI (SNB-78 CNS): 49 µM
TGI (KM20L2 colon): > 100 µM
TGI (M19-MEL melanoma): 32.5 µM
TGI (DLD-1 colon): > 100 µM

CC1(C)C2C/C(=C\c3ccccc3)C(=O)C1C2 (centres undefined)
TGI (DMS 114 small cell lung): > 100 µM
TGI (SNB-78 CNS): > 100 µM
TGI (M19-MEL melanoma): > 100 µM
TGI (DLD-1 colon): > 100 µM
TGI (DMS 273 small cell lung): > 100 µM

C=C(C)[C@H](O)C(O)CC(C)[C@@H]1CCC23CC12CCC1[C@@]2(C)CCC(OC(C)=O)C(C)(C)C2CC(OC2OC(COC(C)=O)C(O)C(O)C2O)[C@]13C (some centres undefined)
TGI (DMS 114 small cell lung): 10.7 µM
TGI (SNB-78 CNS): 14.2 µM
TGI (KM20L2 colon): 9.84 µM
TGI (M19-MEL melanoma): 10.7 µM
TGI (DLD-1 colon): 11.2 µM
TGI (DMS 273 small cell lung): 11.4 µM

Cc1cccc2c1C/C(=C1\CCc3c(C)cccc31)C2=O
TGI (DMS 114 small cell lung): > 100 µM
TGI (KM20L2 colon): > 100 µM
TGI (M19-MEL melanoma): > 100 µM
TGI (DLD-1 colon): > 100 µM
TGI (DMS 273 small cell lung): > 100 µM

C/C(=C\CC[C@]1(C)OC(C)(C)OC1CC/C(C)=C/CO[Si](c1ccccc1)(c1ccccc1)C(C)(C)C)CC/C=C/CO[Si](C)(C)C(C)(C)C (some centres undefined)
TGI (DMS 114 small cell lung): > 100 µM
TGI (SNB-78 CNS): > 100 µM
TGI (KM20L2 colon): > 100 µM
TGI (M19-MEL melanoma): > 100 µM
TGI (DLD-1 colon): > 100 µM
TGI (DMS 273 small cell lung): > 100 µM
